For the test, the system named is HCT-116. Briefly: Cytotoxicity against HCT116 human colon cancer cell line. Type of test: functional, cell-based.
By IC50 is commonly meant the concentration that inhibits the measured activity by half. `CCC(=C/[C@H](C)C/C=C/C(C)=C/[C@@H](C)C(=O)[C@@H](C)[C@H](O)[C@@H](C)CC)/C=C/[C@H]1OC(=O)C=C[C@H]1C` returned an IC50 of 0.2 nM.

With `CCC(=C/[C@H](C)C/C=C/C(C)=C/[C@@H](C)C(=O)[C@@H](C)[C@H](O)[C@@H](C)CC)/C=C/[C@H]1OC(=O)C=C[C@@H]1C`, the 50% inhibitory concentration (IC50) worked out at 2 nM.

`CCC(=C/[C@H](C)C/C=C/C(C)=C/[C@@H](C)C(=O)[C@@H](C)[C@H](O)[C@@H](C)CC)/C=C/[C@@H]1OC(=O)C=C[C@@H]1C` displayed a 50% inhibitory concentration (IC50) of 3 nM.

As for `CCC(=C/[C@H](C)C/C=C/C(C)=C/[C@@H](C)C(=O)[C@@H](C)[C@H](O)[C@@H](C)CC)/C=C/[C@@H]1OC(=O)C=C[C@H]1C`, inhibition was half-maximal at 30 nM (IC50).

The compound `CCC(=C/[C@H](C)C/C=C/C(C)=C/[C@@H](C)C(=O)[C@@H](C)[C@H](O)[C@@H](C)CC)/C=C/[C@H]1CC=CC(=O)O1` [CALLYSTATIN A] returned an IC50 of 0.03 nM.

For the origin of these results see ChEMBL document CHEMBL1147764, “Leptostatin: a synthetic hybrid of the cytotoxic polyketides callystatin A and leptomycin B” (Bioorg Med Chem Lett, 2006).
